Results from US20230104487A1, “11-(4-CHLOROPHENYL)-4-(2,3-DIHYDRO-1H-INDOLE-1-CARBONYL)-3,11-DIMETHYL-5,10,DIOXATRICYCLO[7.4.0.0,2,6,]TRIDECA-1,3,6,8-TETRAEN-13-ONE AND DERIVATIVES AS DESTABILIZER OF CRY1 FOR THE TREATMENT OF CIRCADIAN RHYTHM ASSOCIATED DISEASES AND DISORDERS” (KOC UNIVERSITESI, priority 2019, published 2023).
Where two headings read alike, the source gives them in different places.

Tests used:
BMAL1 = BMAL1 mRNA and protein, synchronized U2-OS cells; format: cell-based, human; conditions: 10 μM
Procedure: Cells were lysed in RIPA buffer (50 mM Tris, 150 mM NaCl, 1% Triton-X, 0.1% SDS) with fresh Protease inhibitor cocktail (PIC). After centrifugation at 13000 rpm for 15 minutes at 4° C., supernatant was used to determine the protein amount using Pierce Protein Assay (Thermo Scientific) according to the manufacturer's instruction. Mice liver samples were homogenized and lysed with Dounce homogenizer and RIPA buffer. After homogenization samples were incubated 10 minutes on ice. After centrifugation 13000 rpm 15 minutes at 4° C. supernatant was used for the whole cell lysate. Subcellular fractionation of liver samples: Liver samples were homogenized with cytosolic lysis buffer (10 mM HEPES pH 7.9, 10 mM KCl, 0.1 mM EDTA, 0.05% NP40, proteasome inhibitor) by pipetting 40 times with a cut tip. Then samples were incubated 10 minutes on ice and centrifuged for 3 minutes at 3000 rpm at 4° C. Supernatant was saved in a new tube, and pellet was processed for the nuclear fraction. […] ECL buffer system (Advansta WesternBright) was used to visualize HRP chemi-luminescence via BioRad ChemiDoc Touch visualizer.
QIAGEN RNeasy Mini Kit was used to isolate the mRNA. […] Quantity of RNA was determined by Nanodrop 2000 (Thermo Scientific). […] For quantitative real time PCR (qRT-PCR) analysis cDNAs were further diluted 5-fold (1:5). mRNA expression levels were calculated by qRT-PCR with the SYBR Green. […]

[1] = Plasma pharmacokinetics in mice; format: in vivo, mouse
Procedure: C57BL/6J female mice (n=4 per each time point) were treated with 100 mg/kg single dose of FORMULA I intraperitoneally. Blood samples were collected 0, 0.5, 1, 2, 4, 8, 12 and 24 h after administration of FORMULA I by cardiac puncture under isoflurane anesthesia. Plasma was obtained by centrifugation from heparinized tubes and stored at −80° C. until analysis. Brain tissues were quickly removed and stored at −80° C. for further processing. For assessment of the brain exposure of FORMULA I, levels in this tissue were only determined at 2nd (n=2) and 4th (n=2) hours according to maximum concentrations of the molecule in plasma.
Liquid chromatography coupled to tandem mass spectrometry (LC-MS/MS) was used to obtain high mass accuracy data of the analytes in plasma samples for the determination of FORMULA I and Internal standard (IS) Loratadine. The instrument was operated in full scan mode and ion source parameters were optimised for the analytes. The optimized conditions of the electrospray ionization (ESI) source were as follows: gas temperature, 300° C.; gas flow, 10 L/min; nebulizer pressure, 25 psi; capillary voltage, 5500 V. ESI in the positive ion mode provides the best results for FORMULA I. For MS-MS detection, the protonated molecules were selected as precursor ions and the most abundant fragment ions obtained at collision energy of 22-20 eV were monitored as the product ions for FORMULA I and IS. MS-MS analysis was performed in the selected reaction monitoring (SRM) positive ionization mode, using mass transitions for FORMULA I m/z 472.1→353.4 [collision energy (CE)=22 eV] and Fragmentor 234 V, for IS; m/z 383.2→337.2 (CE=20 eV) and fragmentor 140 V. For the separation of the analytes, a conventional reversed-phase LC separation on C18-bonded silica was used, with Methanol: % 0.1 Formic acid (90:10, v/v) mobile phase. FORMULA I was extracted from plasma samples by using liquid-liquid extraction with Methanol. 10 μL of sample was injected into the LC-MS/MS system.
Peak plasma concentration (Cmax) and time to reach peak plasma concentration (tmax) values were directly obtained from the FORMULA I plasma concentration-time curve. The area under the plasma concentration-time curve from […] was calculated by the trapezoidal method. AUC0-∞ was obtained by addition of the extrapolated part after the last sampling time using standard techniques. Other pharmacokinetic parameters of FORMULA I were calculated by the non-compartmental method. Elimination rate constant (kel) was calculated from the terminal points of FORMULA I plasma concentration-time plot and the slope of this line was equal to kel. Terminal elimination half-life (t½) was calculated by ln-linear approximation of terminal points of the data. t½ and kel were interconverted with the following formula: t1/2=ln 2/kel

[2] = female, C57BL/6J, mouse, ip, 100 mg/kg, single dose, plasma

## Cc1c(C(=O)N2CCc3ccccc32)oc2ccc3c(c12)C(=O)CC(C)(c1ccc(Cl)cc1)O3 (stereo not shown) [FORMULA I, 11-(4-chlorophenyl)-4-(2,3-dihydro-1H-indole-1-carbonyl)-3,11-dimethyl-5,10,dioxatricyclo[7.4.0.0,2,6,]trideca-1,3,6,8-tetraen-13-one]
BMAL1
  mRNA and protein levels of BMAL1: Decreased mRNA and protein levels of BMAL1
[1]; 100 mg/kg, single dose, i.p.
  time plasma level first detected: 0.5 h
  time plasma level still quantifiable: 24 h
[1]; 100 mg/kg, single dose, i.p., plasma
  kel: 0.127 ± 0.01 h⁻¹
[1]; [2]
  AUC(0-inf): 5190 ± 3130 ng·h/mL
  Cmax: 1150 ± 506 ng/mL
  Tmax: 2 to 4 h
[1]; female, C57BL/6J, mouse, plasma, intraperitoneal, 100 mg/kg, in vivo, mice, read-out: half-life in blood (converted)
  half-life: 360 min
[1]; female, C57BL/6J, mouse, plasma, ip, 100 mg/kg, single dose, i.p., plasma, read-out: t1/2 (converted)
  half-life: 330 ± 19.8 min
[1]; in vivo, mice
  half-life in blood: ~6 h
